The structures appear in SMILES notation. “And” between values parts separate entries of the source, which are not always exact repeats. Identical values can stand only once. Peptide text beside a SMILES is read from it. * marks the point of attachment. Cbz = O=C(OCc1ccccc1)*

The subject of data set [1] is Huh-7 cells. In words: AAV2 FLAG-Luc transduction of Huh-7 cells. The data set is classed as cell-based. The note with it: 20 to 80 μM. The text has this:
A. To screen for agents that enhance rAAV transduction, any number of cells can be used. A range of concentrations of the agent to be tested can be determined based on, for instance desirable profiles of the agent, desirable toxicity profiles of the agent and/or concentration of the agents employed in vivo. The usefulness of the cell type chosen for the screen can be confirmed by testing compounds, e.g., proteasome inhibitors such as LLnL and ZLL which are known to increase rAAV transduction. For example, a AAV2 FLAG-Luc vector was employed to transduce HeLa, ferret fibroblasts, IB3 and Huh (liver) cells in the presence or absence of the proteasome inhibitor MG132. MG132 was confirmed to enhance AAV transduction in all cell types tested: HeLa cell transduction was enhanced about 500-fold at 80 μM, and 200-fold at 40 μM, MG132; ferret fibroblast cell transduction was enhanced about 200-fold at 20 μM, and 17-fold at 4 μM, MG132; IB3-1 cell transduction was enhanced about 30 to 70-fold at 20 to 80 μM MG132; and Huh-7 cell transduction was enhanced about 15-fold at 20 to 80 μM MG132. There was no difference in rAAV transduction efficiency in HeLa cells when either DMSO or ETOH was used as a vehicle for MG132. B. HeLa cells were selected to screen for additional agents that enhance rAAV transduction, although any cell strain or line; or primary cells, may be employed. […]

In data set [2] the test system is mouse lung. The data set can be described thus: AV.LacZ gene transfer to mouse lung with Z-LLL (X-gal morphometry). The data set is classed as in vivo. The method, then: In vivo studies in mice. Animal studies were performed in accordance with the institutional guidelines of the University of Iowa. To determine the effect of the proteasome inhibitor on AAV mediated gene transfer in mouse lung, 6 week-old BALB/c mice were lightly anesthetized using a methoxyflurane chamber. AV.LacZ (5×10^10 particles) was administered alone or with 400 μM Z-LLL in a 10 μl instillation by nasal aspiration as described by Walters et al. (2000). To prevent unforeseen toxicity of DMSO solvent, the proteasome inhibitor Z-LLL was dissolved in ethanol as a 40 mM stock solution and was included in the viral inoculum at 1% final concentration. Viral infection controls in the absence of Z-LLL also contained a 1% final concentration of ethanol. […] The trachea was incubated and instilled at 10 cm of water pressure with the following solutions in order: PBS, 0.5% glutaraldehyde, 1 mM MgCl2/PBS, and finally X-gal staining reagent for an overnight incubation at room temperature. The X-gal stained mouse lungs were then post fixed in 10% neutral buffered formalin for 48 hours at room temperature and cryopreserved in serial 10%, 20% and 30% sucrose/PBS solutions. Lungs (N=3 for each condition) were embedded in OCT (optimal cutting temperature; Baxter, Warrendale, Pa.) and 15 μm serially sections were analyzed for gene transfer by calculating the percentage of positive cells in the airway epithelium. The diameter of the airway was recorded for classification (>360 μm, 260-350 μm, 160-250 μm, <150 μm) of results following morphometric analysis. Greater than 150 airway cross-sections were quantified for each experimental condition.

Data set [3] relates to Balb/c mice. In words: Safety of anthracyclines in Balb/c mice. The data set is classed as in vivo, mouse. The note with it: intranasal, 10% HDE. The source says:
(§1) Animals were followed for seven days post dose.
Safety endpoints included morbidity and mortality, clinical observations, body weights, gross necropsy observations and histopathology. Transduction endpoints included luciferase and GFP analysis.

In data set [4] the test system is mouse lung. In words: Intranasal AAV2-Luc with anthracyclines in Balb/c mice (lung luciferase). The class given is in vivo. Particulars: 10% HDE intranasal, day 7.
From the text: as §1
The dose of modulator was based on the Human Dose Equivalent (HDE) and is summarized below in Table 4. For intranasal dose administration, the dose was held constant at 10% of the HDE.
On the day of sacrifice, the left lung was clamped off at the level of the extrapulmonary bronchi, removed and frozen on dry ice. The left lung was homogenized and processed for luciferase expression using Promega's luciferase assay system (Madison, Wis.). Luminescence was measured using the Berthold AutoLumat LB953 instrument. Samples were normalized for total protein using Pierce's Coomassie Plus Protein Assay Reagent (Rockford, Ill.).

Setting [5] is: 400 μM Z-LLL intranasal, 150 days.

On to `CC(C)C[C@@H](C=O)NC(=O)[C@H](CC(C)C)NC(=O)[C@H](CC(C)C)NC(=O)OCc1ccccc1` [Z-LLL, N-carbobenzoxyl-L-leucinyl-L-leucinyl-L-leucinal] (Cbz-Leu-Leu-Leu-aldehyde), for which the “enhancement of Huh-7 cell transduction” value in data set [1] was “about 15 fold”. In data set [2] (setting [5]), the “airway cells transduced by AV.LacZ, average” value is “about 5.88%”; the “airways cells in the smaller bronchioles (<150 mm) expressing β-galactosidase” value amounted to 1.37±0.41%; the “range of transgene expression in distal airways” value was in the range of 0 to 4%; the “range of transgene expression in proximal airways” value is 5 to 18%. Also, the “transduction efficiency in larger bronchioles (>350 mm), mean % of the airway epithelium” value in data set [2] (setting [5]) is 10.36±1.63% and 10.36+/−1.63%. Besides, the “transgene expression by X-gal staining” value in data set [2] (3 and 10 days post infection) is reported as “no detectable transgene expression”.

Regarding `COc1cccc2c1C(=O)c1c(O)c3c(c(O)c1C2=O)C[C@@](O)(C(=O)CO)C[C@@H]3O[C@H]1C[C@H](N)[C@H](O)[C@H](C)O1` [doxorubicin], in data set [3] (7 days), the “mortality and clinical observations” value is “early mortality of some animals, ruffled hair coats and sick mice”. Further, the body weight result in data set [3] (over the week) was “lost considerable body weight”. Further, the “luciferase expression, Average” value was 1.77E+06 in data set [4] (both sexes), 5.44E+05 in data set [4] (female) and “*4.21E+06” in data set [4] (male).

For the origin of these results see patent US20080206198A1, “Compounds and methods for pharmico-gene therapy of epithelial sodium channel associated disorders” (priority 2003, published 2008).
